Our source for the inhibition values is paper PMC9864769, “Identification of Lignan Compounds as New 6-Phosphogluconate Dehydrogenase Inhibitors for Lung Cancer” (Metabolites, 2022).

This test addresses T1, 6-phosphogluconate dehydrogenase (6-PGD) (Homo sapiens, UniProt P52209).
T1 construct: native enzyme purified from human erythrocytes
T1 sequence (P52209 1-483): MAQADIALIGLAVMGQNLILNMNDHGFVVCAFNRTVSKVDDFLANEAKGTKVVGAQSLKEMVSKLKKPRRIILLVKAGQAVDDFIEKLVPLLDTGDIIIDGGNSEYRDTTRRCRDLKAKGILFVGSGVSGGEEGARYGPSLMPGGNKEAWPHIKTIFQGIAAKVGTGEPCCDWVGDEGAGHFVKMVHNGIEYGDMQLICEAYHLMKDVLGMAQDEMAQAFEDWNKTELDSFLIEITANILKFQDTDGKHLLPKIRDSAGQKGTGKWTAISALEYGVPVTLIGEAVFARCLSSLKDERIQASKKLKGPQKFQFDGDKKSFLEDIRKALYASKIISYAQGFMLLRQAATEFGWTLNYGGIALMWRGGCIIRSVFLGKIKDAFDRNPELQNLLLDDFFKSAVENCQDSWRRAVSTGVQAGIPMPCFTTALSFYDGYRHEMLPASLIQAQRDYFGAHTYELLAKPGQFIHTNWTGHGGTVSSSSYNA
Description: enzyme activity assay (NADPH absorbance at […] nm) on 6-PGD purified from human erythrocytes; also A549 lysate assay. The format is biochemical. Conditions: read-out: % reduction of activity at 200 μg/mL.

`COc1cc([C@H]2Oc3c(OC)cc4ccc(=O)oc4c3O[C@@H]2CO)ccc1O` [cleomiscosin A]: the inhibition at 200 µg/mL was determined as 70%.

On to `COc1cc([C@H]2OC[C@H]3[C@@H]2CO[C@@H]3c2cc(OC)c(O)c(OC)c2)cc(OC)c1O` [syringaresinol], for which the inhibition at 200 µg/mL came to 76.3%.
